The results in this text go back to ChEMBL document CHEMBL5385946, “Discovery of Dehydroabietylamine Derivatives as Antibacterial and Antifungal Agents” (J Nat Prod, 2024).

Converted amounts (≈) assume the structure as drawn. The source made the active and inactive calls. No cut-off for these calls is given here.

One test has as its system Staphylococcus aureus. The test is described as follows: Antibacterial activity against Staphylococcus aureus CMCC(B)26003 by agar dilution method. It counts as functional.
Test [1] addresses DNA topoisomerase II (Homo sapiens) (UniProt P11388+Q02880). The test is described as follows: Inhibition of DNA topoisomerase II (unknown origin). It counts as protein assay.
Test [2] relates to Rhizoctonia solani. As to the kind of experiment: Antifungal activity against Rhizoctonia solani assessed as protective effect at 400 ug/ml. It counts as functional. Particulars: dose 400 µg/ml.
Test [3] has as its system Rhizoctonia solani. The test is described as follows: Antifungal activity against Rhizoctonia solani at 50 ug/ml. It counts as functional.
A further test deals with Botrytis cinerea. As to the kind of experiment: Antifungal activity against Botrytis cinerea at 50 ug/ml. It counts as functional.
For the next test, the system named is Fusarium graminearum. As to the kind of experiment: Antifungal activity against Gibberella zeae at 50 ug/ml. It counts as functional.
A further test has as its system Alternaria solani. As to the kind of experiment: Antifungal activity against Alternaria solani at 50 ug/ml. It counts as functional.
Test [4] has as its system Rhizoctonia solani. The test is described as follows: Antifungal activity against Rhizoctonia solani. It counts as functional, organism-based.
A further test deals with Escherichia coli. The test is described as follows: Antibacterial activity against Escherichia coli CMCC(B)44102 by agar dilution method. It counts as functional.
For test [5], the system named is Rhizoctonia solani. The test is described as follows: Antifungal activity against Rhizoctonia solani assessed as protective effect at 200 ug/ml. The settings on record: dose 200 µg/ml. It counts as functional.
Test [6] deals with Rhizoctonia solani. As to the kind of experiment: Antifungal activity against Rhizoctonia solani assessed as appearance of contracted surface at 25 ug/ml by SEM analysis. It counts as functional, organism-based. The settings on record: dose 25.0 µg/ml.
The subject of test [7] is Rhizoctonia solani. As to the kind of experiment: Antifungal activity against Rhizoctonia solani assessed as appearance of rough surface at 25 ug/ml by SEM analysis. It counts as functional, organism-based. The settings on record: dose 25.0 µg/ml.
Test [8] relates to Rhizoctonia solani. The test is described as follows: Antifungal activity against Rhizoctonia solani assessed as appearance of irregular intertwining at 25 ug/ml by SEM analysis. It counts as functional, organism-based. Particulars: dose 25.0 µg/ml.
In test [9] the test system is Rhizoctonia solani. The test is described as follows: Antifungal activity against Rhizoctonia solani assessed as hyphal surface secretion at 25 ug/ml by SEM analysis. It counts as functional, organism-based. The settings on record: dose 25.0 µg/ml.
Test [10] deals with Rhizoctonia solani. As to the kind of experiment: Antifungal activity against Rhizoctonia solani assessed as appearance of twisted hyphae at 25 ug/ml by SEM analysis. It counts as functional, organism-based. The settings on record: dose 25.0 µg/ml.
The subject of test [11] is Rhizoctonia solani. The test is described as follows: Antifungal activity against Rhizoctonia solani assessed as appearance of shrunk hyphae at 25 ug/ml by SEM analysis. It counts as functional, organism-based. Particulars: dose 25.0 µg/ml.
The test system of test [12] is Rhizoctonia solani. The test is described as follows: Antifungal activity against Rhizoctonia solani assessed as appearance of irregular mycelium bending incubated for 36 hrs. It counts as functional, organism-based.
The test system of test [13] is Rhizoctonia solani. As to the kind of experiment: Antifungal activity against Rhizoctonia solani assessed as appearance of disordered mycelium winding incubated for 36 hrs. It counts as functional, organism-based.
In test [14] the test system is Rhizoctonia solani. As to the kind of experiment: Antifungal activity against Rhizoctonia solani assessed as appearance of wrinkling on mycelium surface incubated for 36 hrs. It counts as functional, organism-based.
For test [15], the system named is Rhizoctonia solani. The test is described as follows: Antifungal activity against Rhizoctonia solani assessed as mycelium shrinkage incubated for 36 hrs. It counts as functional, organism-based.

Molecule `O=C(O)c1cn(C2CC2)c2cc(N3CCNCC3)c(F)cc2c1=O` [CIPROFLOXACIN] came in with an MIC against Staphylococcus aureus of more than 128 µg/mL. In test [1], the INH is 1.11 ng/mL.
Turning to `OCC1=C[C@H](N[C@H]2C[C@H](CO)[C@@H](O[C@@H]3O[C@H](CO)[C@@H](O)[C@H](O)[C@H]3O)[C@H](O)[C@H]2O)[C@H](O)[C@@H](O)[C@@H]1O` [VALIDAMYCIN], the Activity in the test on Rhizoctonia solani [2] was 83.1%.
On to `O=C(Nc1ccccc1-c1ccc(Cl)cc1)c1cccnc1Cl` [BOSCALID], for which the inhibition at 50 µg/mL in the test with Rhizoctonia solani [3] was 80.2%; in the test with Botrytis cinerea it was 90.1%; in the test with Fusarium graminearum, 32%; in the test on Alternaria solani, 49.5%. In the test on Rhizoctonia solani [4], the EC50 came out at 1.57 µg/mL (≈ 4.57 µM).
Turning to `CC(C)c1ccc2c(c1)CC[C@H]1[C@@](CN)(Cc3ccc(Cl)cc3)CCC[C@]21C`, the values for the MIC in the test with Escherichia coli and in the test with Staphylococcus aureus were 0.125 µg/mL (≈ 0.316 µM) and 8 µg/mL (≈ 20.2 µM), respectively. The INH in test [1] is 0.76 ng/mL. In addition, the inhibition at 50 µg/mL in the test with Rhizoctonia solani [3] came to 80.6%; in the test with Botrytis cinerea it was 47.3%; in the test on Fusarium graminearum it was 25.9%; in the test with Alternaria solani, 20.2%. Moreover, in the test with Rhizoctonia solani [4], a half-maximal response (EC50) required 7.86 µg/mL (≈ 19.9 µM).
On to `COc1ccc(C[C@@]2(CN)CCC[C@]3(C)c4ccc(C(C)C)cc4CC[C@@H]23)cc1`, for which the MIC in the test with Escherichia coli is 32 µg/mL (≈ 81.7 µM); against Staphylococcus aureus it was more than 128 µg/mL. Moreover, the inhibition at 50 µg/mL with Rhizoctonia solani [3] stood at 95.6%; in the test with Botrytis cinerea it was 85.2%; in the test on Fusarium graminearum, 34.8%; in the test on Alternaria solani, 22.1%. Besides, a half-maximal effect with Rhizoctonia solani [4] (EC50) was put at 5.21 µg/mL (≈ 13.3 µM). Further, the Activity in the test on Rhizoctonia solani [5] is given as 27.7%; with Rhizoctonia solani [2], 76.9%. For the same molecule, the outcome in the test on Rhizoctonia solani [6], in the test on Rhizoctonia solani [7], in the test on Rhizoctonia solani [8], in the test on Rhizoctonia solani [9], with Rhizoctonia solani [10] and in the test with Rhizoctonia solani [11] was Active. Also, the outcome with Rhizoctonia solani [12], in the test with Rhizoctonia solani [13], in the test on Rhizoctonia solani [14] and in the test on Rhizoctonia solani [15] was Active.
With `CC(C)c1ccc2c(c1)CC[C@H]1[C@@](CNC(=O)c3ccccn3)(Cc3ccc(Cl)cc3)CCC[C@]21C`, the values for the MIC in the test on Escherichia coli and against Staphylococcus aureus were 32 µg/mL (≈ 63.9 µM) and 8 µg/mL (≈ 16 µM), respectively. In addition, the inhibition at 50 µg/mL with Rhizoctonia solani [3] was 55.3%; with Botrytis cinerea, 51.3%; in the test on Fusarium graminearum it was 45.7%; with Alternaria solani it was 35%.
Turning to `CC(C)c1ccc2c(c1)CC[C@H]1[C@@](CNC(=O)c3ccccn3)(Cc3ccc(C#N)cc3)CCC[C@]21C`, the MIC was 64 µg/mL (≈ 130 µM) in the test with Escherichia coli and more than 128 µg/mL against Staphylococcus aureus. The inhibition at 50 µg/mL with Rhizoctonia solani [3] was determined as 28.5%; in the test with Botrytis cinerea, 30.6%; in the test with Fusarium graminearum, 0%; with Alternaria solani, 5.5%.
